No end group written: not given here.
Tests used:
human CCL8-647 = molecular target: T1, human CCL8-647 (Homo sapiens, UniProt P80075); assay: Fluorescent chemokine binding to THP-1 cells (flow cytometry); type: cell-based; settings: FIG. 16 A, B
T1 construct: purchased Almac (UK)
T1 sequence (P80075 24-99): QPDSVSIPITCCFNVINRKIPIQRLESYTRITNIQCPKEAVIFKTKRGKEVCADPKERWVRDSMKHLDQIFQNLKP
Procedure: P672_PEP_SCRAM (C-terminally amidated)=[…] FIG. 16(A). […] 60 μM (+) P672_PEP or P672_PEP_SCRAM were incubated with CCL8-647 (2.5 nM) for half an hour at 37° C. prior to adding to THP-1 cells and incubating everything together for a further half an hour at 37° C. Cells were then analysed using fluorescence assisted cell sorting (10,000 cells analysed) and MFI recorded. Experiment carried out in triplicate where each data point is the average of one experiment carried out in technical triplicate. Mean with SEM shown and statistical significance was determined using one-way ANOVA with Sidak's correction for multiple comparisons using Graph Pad Prism 6. ****=P<0.00005, ns=not significant.
Data are shown as mean of two technical replicates. […] Curves were fitted with 4 parameters to estimate IC50.
Fluorescent chemokine (conjugated to AlexaFluor-647) binding to THP-1 cells results in an increase in the cellular fluorescence intensity, which is quantitatively measured using flow cytometry.
Fluorescent Chemokine/Receptor Blocking Assay CCL8-647 (2.5 nM, final) or […] (1.2 nM, final) was incubated for 30 minutes with varying doses of peptide (0-100 μM, final concentration) in 50 μL assay buffer (RPMI-1640+L-glutamine (4 mM)+10% heat treated fetal bovine serum+0.2% DMSO) at 37° C. […]

CCL8 = molecular target: T2, CCL8 (Homo sapiens, UniProt P80075); assay: Fluorescence polarisation (anisotropy) assay; type: binding; settings: fluorescence polarisation displacement assay
T2 construct: SUMO (in-house protein only) (cleaved yes); made in house; host or cells: Escherichia coli RosettaGami 2 (DE3)
T2 sequence (P80075 24-99): T1 sequence (P80075 24-99)

EDEDYEDFFKPVTAYF-NH2 [BK1.1]
Inhibition of CCL8-647 binding to THP-1 cells (human CCL8-647): could inhibit CCL8-647 binding to THP-1 cells
Displacement of FITC-labelled peptide from CCL8 by unlabelled peptide (CCL8): indicate its binding
Displacement of FITC-labelled peptide from CCL8 by unlabelled peptide (CCL8; listed as P672_PEP): able to displace labelled peptide bound to chemokine

— patent US20200247855A1, “THERAPY AND DIAGNOSTICS” (OXFORD UNIVERSITY INNOVATION LIMITED, priority 2017, published 2020)
